Assay results from patent publication US4923878A, “Quinolizine sulfonamides used against certain neoplastic disease states” (Merck & Co., Inc., priority 1988, dated 1990).
pIC50: −log10 of the molar value.

What was measured:
A704 = assay: MTT-microculture tetrazolium assay, growth inhibition of renal A704 cells; format: cell-based; details: Homo sapiens, 144 h; Renal cell line A704; 6 days at 37° C.; 0.5% DMSO
Description: (§1) Tests carried out in accordance with the procedures described in Cancer Research 48, 589-601, February 1988, Feasibility of Drug Screening with Panels of Human Tumor Cell Lines Using a Microculture Tetrazolium Assay--Shoemaker et al., and Cancer Research 48, 4827-4833, September 1988, Evaluation of a Soluble Tetrazolium/Formazan Assay for Cell Growth and Drug Sensitivity in Culture using Human and other Tumor Cell Lines--Shoemaker et al. A brief description of this procedure follows. For further details refer to the above identified articles.
(§2) The procedure was carried out on cell lines from various disease types. Cell lines were maintained as stocks in RPMI 1640 (Quality Biological, Gaithersburg, Md.) supplemented with 10% fetal bovine serum (Sterile Systems, Logon, UT) and 2mM L-glutamine (Central Medium Laboratory, NCI FCRF). Cell cultures were passaged once or twice weekly using trypsin-EDTA(Central Medium Laboratory, NCI-FCRF) to detach the cells from their culture flasks. […]
(§3) Cellular growth in the presence or absence of the test compound was determined using the MTT-microculture tetrazolium assay. In the MTT assay rapidly growing cells are harvested, counted and inoculated at the appropriate concentrations (100-μl volume) into 96-well microtiter plates using a multichannel pipet. […]

SN-12KI = assay: MTT-microculture tetrazolium assay, growth inhibition of renal SN-12KI cells; format: cell-based; details: Homo sapiens, 144 h; Renal cell line SN-12KI; 6 days at 37° C.; 0.5% DMSO
Description: as §1, §2, §3

A498 = assay: MTT-microculture tetrazolium assay, growth inhibition of renal A498 cells; format: cell-based; details: Homo sapiens, 144 h; Renal cell line A498; 6 days at 37° C.; 0.5% DMSO
Description: as §1, §2, §3

[1] = test system: cell lines derived from renal carcinomas; assay: MTT-microculture tetrazolium assay, growth inhibition of cell lines derived from renal carcinomas; format: cell-based, human; details: at the indicated concentrations; 6 days at 37° C.
Description: as §1, §2, §3

`CS(=O)(=O)NCCN[C@@H]1CCN2CCc3c(oc4ccccc34)[C@@H]2C1` (relative stereo) [(2RS,12bSR)-N-[2-(1,3,4,6,7,12b-hexahydro-2H-benzo[b]furo[2,3-a]quinolizin-2-yl)]-N-2-((methanesulfonyl)ethyl)amine] showed a pIC50 (A704) of 6.80, a pIC50 (SN-12KI) of 5.20 and a pIC50 (A498) of 5.80. The “growth inhibition of cell lines derived from renal carcinomas (in words)” value [1] was “selectively inhibit the growth of cell lines derived from renal carcinomas”.
